Assays:
[1] = change in body weight during dermal application; details: after 4 weeks of application, 3 mg/mouse/day dermal
Description: Experiments were carried out using 24 male C57BL/6N mice aged 6 weeks, which were purchased from OrientBio Inc., acclimated for two weeks in a laboratory environment, and then divided into a total of three groups (n=5) of a negative control (CON), a positive control (MXD) and a nonanal group (NN). An animal laboratory was maintained at 21±2.0° C., a relative humidity of 50±5%, on a 12-hour day/night cycle. During the experimental period, a general solid feed (chow) and water were freely offered to the mice.
To investigate a hair development effect, an 8-week-old mouse with telogen-phase hair, in which a dorsal skin color was pink, were used. The dorsal hair of the mouse was removed using a clipper for a mouse, and the sample was applied daily at 4 p.m. for 4 weeks. The test material nonanal (3 mg/mouse/day) and the control drug Minoxidil (3 mg/mouse/day) were applied after being dissolved in the vehicle (ethanol:water:propylene glycol=5:3:2), and only the vehicle was applied to the negative control group.
A body weight of the experimental animal from immediately before the application of an agent for hair development to the end of the application was measured weekly.

diarrhea-induced mice = details: cited from earlier work
telogen-phase hair = experiment: hair development state and hair length in shaved mice; format: in vivo, C57BL/6N mice; details: dermal 3 mg/mouse/day
Description: To visually examine a hair growth state, 1, 2, 3, and 4 weeks after the application started, the experimental animals were slightly anesthetized with ether, and a dorsal region was photographed. To evaluate the degree of hair growth, the hair length was measured using a ruler.

[2] = clinical studies, 1% solution; cited from earlier work
rats = details: oral; cited from earlier work
T-Cell factor (TCF) = experiment: q-PCR gene expression in dorsal skin tissue; format: in vivo, mouse; details: 4 weeks
Description: (§1) To quantify total RNA in skin tissue of the experimental animals, 1 mL of a TRIzol solution was added to 50 to 100 mg of skin tissue and homogenized, and then centrifuged at 4° C. and 12,000×g for 10 minutes. The supernatant was transferred to a new tube, 200 μl of chloroform was added, and then the resulting mixture was vigorously shaken. This process was repeated twice, then the supernatant was transferred to a new tube, in which isopropanol and the supernatant were added in a ratio of 1:1. The resulting mixture was shaken 10 times, and maintained at room temperature for 10 minutes and centrifuged at 12,000×g and 4° C. for 10 minutes to remove the supernatant. Then, 1 ml of 70% ethanol was added to the remaining pellet and centrifuged at 7,500×g and 4° C. for 5 minutes. Following the removal of ethanol, a tube containing the RNA pellet was dried at room temperature for 5 minutes, and the RNA pellet was dissolved in nuclease-free water. Concentrations of the extracted RNA specimens at 260 nm and 280 nm wavelengths were measured using a UV/VIS spectrophotometer (Beckman Coulter, DU730), and agarose gel electrophoresis was performed to confirm the integrity of the RNA specimens.
(§2) Following the isolation of RNA, cDNA was synthesized by performing reverse transcription using an oligo dT primer and a Superscript reverse transcriptase (Gibco BRL, Gaithersburg, Md., USA). To measure expression levels of genes, real-time q-PCR was performed using SYBR Green (Bio-Rad, Hercules, Calif., USA), and the instrument used was a CFX Connect™ Real-Time PCR Detection System (Bio-Rad).
(§3) For real time PCR, 2 μL of cDNA, 10 μL of a 2× SYBR mix, 1 μL each of a forward primer and a reverse primer (10 to 20 pmol/μL) were added, and then, H2O was filled to the final volume 20 μL. A PCR extension step was performed as follows, and 35 extension cycles was performed. The extension was performed at 95° C. for 1 minute for hot start, at 95° C. for 15 seconds for denaturation in the extension step, at 55° C. for 30 seconds for annealing, and at 72° C. for 1 minute for extension. After all cycles were completed, to identify primer specificity, melting curve analysis was performed.
(§4) Change in expression of a β-catenin signaling material known as a mechanism for promoting hair development in skin tissue was analyzed by q-PCR analysis on dorsal skin tissue of a mouse to which the test material was applied for 4 weeks.

[3] = test system: Lymphoid enhancer factor (LEF); experiment: q-PCR gene expression in dorsal skin tissue; format: in vivo, mouse; details: 4 weeks
Description: as §1, §2, §3, §4

Cyclin D1 = experiment: q-PCR gene expression in dorsal skin tissue; format: in vivo, mouse; details: 4 weeks
Description: as §1, §2, §3, §4

β-catenin [4] = experiment: q-PCR gene expression in dorsal skin tissue; format: in vivo, mouse; details: 4 weeks
Description: as §1, §2, §3, §4

β-catenin [5] = experiment: Western blot of dorsal skin tissue; format: in vivo, mouse; details: Western blotting
Description: A predetermined amount of skin tissue was homogenized with liquid nitrogen and a lysis buffer using a mortar and centrifuged at 13,000×g and 4° C. for 20 minutes to obtain an intermediate layer, and then a protein was quantified by the Bradford method. 50 μg of the protein was subjected to electrophoresis on an SDS polyacrylamide gel and electroblotted onto a PVDF hyperfilm, and then reacted with a β-catenin or β-actin antibody (Cell Signaling Technology, Danvers, Mass., USA). A signal of each protein was visualized using a chemiluminescent detection system (Amersham), and then a band thickness was quantified using the Quantity One Analysis Software (Bo-Rad Laboratories).

rabbits = details: transdermal; cited from earlier work
hair follicles = experiment: histological analysis of dorsal skin; format: in vivo, C57BL/6N mice; details: 4 weeks of application
From the text: The experimental animals were sacrificed after four weeks of the application, and a dorsal skin tissue specimen was extracted from the test material-applied region using scissors and forceps, and then fixed with formalin. By steps, the resulting specimen was dehydrated with an alcohol and xylene, embedded in paraffin, sliced into a 5-μm fragment using a microtome, and treated again with an alcohol and xylene to remove paraffin. After hematoxylin-eosin staining, a histological change in hair follicle tissue was observed using an optical microscope. The hair development cycle was evaluated by a pathologist, the number and diameter of hair follicles were measured using an optical microscope, and the number of hair follicles in the test group was measured under a 40× optical microscope.

SMILES | body weight, difference between test groups [1] | inhibition of diarrhea (diarrhea-induced mice) | hair length at three weeks (telogen-phase hair; 3 weeks) | visual hair growth after 4 weeks (telogen-phase hair; 4 weeks, vs negative control) | increase in hair length compared with negative control (telogen-phase hair; after four weeks, p<0.001) [%] | visual hair growth (onset) (telogen-phase hair; weekly photographs) | dermal irritation or sensitization reaction [2] | lethal dose 50% (LD50 value) (rats) | TCF gene expression compared with negative control (T-Cell factor (TCF)) | LEF gene expression compared with negative control [3] | cyclin D1 gene expression compared with negative control (Cyclin D1) | β-catenin gene expression compared with negative control (β-catenin [4]) | increase in β-catenin protein expression compared with negative control (β-catenin [5]) [%] | β-catenin protein expression effect compared with Minoxidil group (β-catenin [5]) | LD50 value (rabbits) | increase in number of hair follicles compared with negative control (hair follicles) [%] | microscopy of hair follicles (hair follicles) | increase in hair follicle diameter compared with negative control (hair follicles; image analysis) [%]
Nc1cc(N2CCCCC2)nc(N)[n+]1[O-] [Minoxidil] | no significant difference |  |  |  |  |  |  |  |  |  |  |  |  |  |  |  |  | 
CCCCCCCCC=O [nonanal] |  | significant effect in inhibition of diarrhea | significantly increased | hair grew more evenly and fully in more individuals than that in the negative control group | 434 | from three weeks of the application, hair began to grow | no dermal irritation or sensitization reaction | 5,000 mg/kg | significantly increased | significantly increased | significantly increased | significantly increased | 71 | superior to that of the Minoxidil group | 5,000 mg/kg | 166 | hair follicles elongated to come out of the skin | 38
